Where a name gives a salt, the structure may show the parent alone.
Tests used:
[1] = test system: N-acetyl glycyl-lysine methyl ester; test: Inhibition of cross-linking of N-acetyl glycyl-lysine methyl ester in the presence of ribose (fluorescence); format: biochemical; settings: 0.5 M sodium phosphate buffer pH 7.4, 37° C., 16-24 hours; read-out: IC50 inhibition of cross-linking of N-acetylglycyllysine methyl ester with ribose
Source text: The following method was used to evaluate the ability of the compounds of the present invention to inhibit the cross-linking of N-acetyl glycyl-lysine methyl ester in the presence of ribose.
N-acetylglycyllysine methyl ester (DP in formula below)
Ribose (R in formula below)
Test compounds (C in formula below)
0.5 M sodium phosphate buffer pH 7.4
N-acetylglycyllysine methyl ester in 0.5M sodium phosphate buffer, pH 7.4
Test compounds dissolved in the above buffer and the pH is adjusted to 7.4, if necessary
Reaction mixtures are prepared as follows:
and incubated at 37° C. for 16-24 hours. At the end of the incubation period reaction mixture is diluted with 3 ml distilled water and the fluorescence is read using an excitation wavelength of 350 nm and emission wavelength of […]. The inhibition of the cross-linking is calculated from the decrease in the fluorescence in the presence of the test compounds according to the formula:
Inhibition (%)=100×[DPRC fluorescence−RC fluorescence]/DPR fluorescence
The Inhibition by various test compounds (IC50) is as follows: […]

[2] = test system: streptozotocin-diabetic rat; settings: cited from earlier work
red blood cells = settings: in vivo; cited from earlier work
diabetic rats = settings: cited from earlier work
kidney = settings: in vivo; cited from earlier work

Row | Compound | IC50 [1] | other results
1 | COc1cccc(C(=O)C=C2NN=C(N)N(N)C2=O)c1 [3,4-diamino-6-(3′-methoxyphenylcarbonylmethylene)-1,2,4-triazine-5(4H)-one] | > 10000 µM | –
2 | 2-methyl-[6′-(3′,4′-diamino-5(4H)-one-1,2,4-triazinyl)]hydrazide | 830 µM | –
3 | CCCCc1nnc(N)n(N)c1=O [3,4-diamino-6-butyl-1,2,4-triazine-5(4H)-one] | 1600 µM | –
4 | Cl.NNc1nnc(Cc2ccc(O)cc2)c(=O)n1N [4-amino-3-hydrazino-6-(4′-hydroxybenzyl)-1,2,4-triazin-5(4H)-one hydrochloride] | > 1000 µM | melting point: 218 to 222 °C (dec.)
5 | N=C(N)NN [aminoguanidine] | – | Increased glomerular basement membrane thickness [2]: prevented; Diabetes-induced changes in the deformability of red blood cells (red blood cells): has been shown to prevent it in vivo; Aortic wall protein cross-linking (diabetic rats): diminishes aortic wall protein cross-linking; Immunoglobulin trapping in the kidney (kidney): reduction of immunoglobulin trapping in the kidney
6 | Cc1nnc(NN)n(N)c1=O [4-amino-3-hydrazino-6-methyl-1,2,4-triazin-5(4H)-one hydrochloride] | < 3000 µM | –
